Reference: ChEMBL document CHEMBL1201862, “PubChem BioAssay data set” (2004)
Calls of active or inactive are those of the source. Cut-off read from the data, not from the text of the source, for most assays here: actives have a measured IC50 and inactives only a lower limit.

How the values were obtained:
[1] = molecular target: T1, Sentrin-specific protease 8 (Homo sapiens, UniProt Q96LD8); type: functional;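 note: luminescence read-out of SENP8 inhibition, dose-response confirmation following an ultra-high-throughput screen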
T1 sequence (Q96LD8 whole entry): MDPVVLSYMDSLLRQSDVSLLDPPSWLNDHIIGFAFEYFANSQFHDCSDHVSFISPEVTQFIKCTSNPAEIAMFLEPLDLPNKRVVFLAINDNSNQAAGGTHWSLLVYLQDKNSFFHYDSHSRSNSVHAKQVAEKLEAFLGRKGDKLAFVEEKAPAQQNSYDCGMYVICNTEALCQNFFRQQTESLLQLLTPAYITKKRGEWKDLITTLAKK

[2] = molecular target: T2, Mannose-6-phosphate isomerase (Homo sapiens, UniProt P34949); assay: human PMI inhibitors, high substrate, primary screen, biochemical, fluorescence intensity, high mannose 6-phosphate (AID 1220)
T2 sequence (P34949 whole entry): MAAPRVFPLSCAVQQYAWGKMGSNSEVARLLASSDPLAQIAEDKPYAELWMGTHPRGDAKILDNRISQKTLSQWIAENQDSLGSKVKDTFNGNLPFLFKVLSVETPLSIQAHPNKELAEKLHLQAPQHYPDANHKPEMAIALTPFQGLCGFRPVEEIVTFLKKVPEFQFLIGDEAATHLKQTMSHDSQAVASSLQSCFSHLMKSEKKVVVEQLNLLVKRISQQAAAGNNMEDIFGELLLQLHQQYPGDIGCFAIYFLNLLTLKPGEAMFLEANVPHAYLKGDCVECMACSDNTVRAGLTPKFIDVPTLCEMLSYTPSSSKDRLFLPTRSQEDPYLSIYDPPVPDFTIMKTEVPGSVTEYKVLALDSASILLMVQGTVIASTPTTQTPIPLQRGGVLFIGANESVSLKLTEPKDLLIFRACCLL

INS1 = assay: beta cell apoptosis inhibitors, cytokine rescue, dose response, luminescence, retest (AID 449756); type: functional, cell-based; conditions: Rattus norvegicus;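 note: cell death triggered by IL-1 beta plus TNF-alpha plus IFN-gamma mixture; protective hits raise ATP signal compared with cytokine alone wells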

Oc1nc(Nc2ccccc2Cl)cc2ccccc12
IC50 [1]: 4.23 µM (active)

Cc1nc2c(=O)n(C)c(=O)nc-2n(C)n1
IC50 [2]: 6.09 µM (active) | AC50 (INS1): 0.695 µM (active)
